# Experimental data from publication PMC8001472, “Novel Selective IDO1 Inhibitors with Isoxazolo[5,4-d]pyrimidin-4(5H)-one Scaffold” (Pharmaceuticals, 2021).
# Legend:
# IDO1 = IDO1 (Homo sapiens, UniProt P14902); assay: hIDO1 inhibitory potency evaluation (fluorescence assay, NFK-derived fluorophore); format: biochemical; design: gene encoding human IDO1 residues 6-403 His-tagged at the N-terminus; His tag (N); made in house; host or cells: Escherichia coli NiCo21; conditions: for IC50: recombinant hIDO1, mean ± SD of at least two independent determinations, read-out: IDO1 IC50
# hTDO = biological target: T1, hTDO (Homo sapiens, UniProt P48775); assay: hTDO inhibitory potency evaluation (fluorescence assay); format: biochemical; conditions: 100 µM compound; n.a. = not active; read-out: TDO % of Inhibition @ 100 µM
# T1 construct: purchased Vinci-Biochem
# Protocol: (§1) Additionally, to determine IDO1 selectivity, all final compounds were assayed for their inhibitory potencies towards hIDO2 and hTDO. For this purpose, two new protocols were developed based on the published fluorescence assay for hIDO1 [25]. Sodium ascorbate, methylene blue, and bovine catalase were used in the same concentrations as for hIDO1. 50 mM phosphate buffers with pH values of 7.5 and 7.0 were used for hIDO2 and hTDO, respectively, as has been already mentioned before. First, the activities of hIDO2 and hTDO were determined at four different concentrations. […] Additionally, the effect of DMSO concentration on enzyme activity was investigated. […] The optimal hIDO2 and hTDO assay concentrations of the substrate L-Trp were determined to be 4 mM and 500 μM, respectively.
# The activity of the compounds on hTDO was determined according to the previously reported fluorescence protocol for hIDO1 [25] and reported absorbance protocols for hTDO [30] with several modifications. Recombinant hTDO was purchased from Vinci-Biochem (Vinci-Biochem, Vinci, Italy), bovine catalase was purchased from Sigma-Aldrich (Sigma-Aldrich, St. Louis, MO, USA). Prior to the measurement of activity for compounds, the enzyme activity was determined, and optimal assay enzyme concentration was selected. The amounts of reagents needed to perform the assay were optimized. Briefly, the reagents needed were dissolved in 50 mM potassium phosphate buffer (pH 7.0, 0.01%, v/v Tween 20), the reaction was performed in black 384-well microplates. After the addition of 1 μL of 100 mM sodium ascorbate neutralized with equimolar amount of 1 M NaOH, 1 μL of 100 μM methylene blue, 1 μL of 1 mg/mL bovine catalase, 0.5 μL of DMSO (negative control) or solution of a compound, 5 μL of 300 nM hTDO and 1.5 μL of 3.3 mM L-Trp were added and the microplate was incubated for 60 min at 37 °C. The reaction was quenched with the addition of 10 μL of 400 mM piperidine solution in MilliQ water and the formation of the examined fluorophore began following incubation at 65 °C for 20 min. The production of NFK-derived fluorophore (λEX = 400 nm, λEM = 500 nm) was measured using a microplate reader (Synergy H4; BioTek Instruments, Inc., Winooski, VT, USA) after 60 min post-incubation at room temperature. In the preliminary testing compounds were tested at 100 μM with activities determined as residual activities—RA, which were calculated to% of inhibition, presented in Table 1 and Table 2 (% of inhibition = 100% − RA). All determinations were carried out in duplicates.
# hIDO2 = biological target: T2, hIDO2 (Homo sapiens, UniProt Q6ZQW0); assay: hIDO2 inhibitory potency evaluation (fluorescence assay); format: biochemical; conditions: 100 µM compound; n.a. = not active; read-out: IDO2 % of Inhibition @ 100 µM
# T2 construct: purchased Vinci-Biochem
# T2 sequence (Q6ZQW0 1-407): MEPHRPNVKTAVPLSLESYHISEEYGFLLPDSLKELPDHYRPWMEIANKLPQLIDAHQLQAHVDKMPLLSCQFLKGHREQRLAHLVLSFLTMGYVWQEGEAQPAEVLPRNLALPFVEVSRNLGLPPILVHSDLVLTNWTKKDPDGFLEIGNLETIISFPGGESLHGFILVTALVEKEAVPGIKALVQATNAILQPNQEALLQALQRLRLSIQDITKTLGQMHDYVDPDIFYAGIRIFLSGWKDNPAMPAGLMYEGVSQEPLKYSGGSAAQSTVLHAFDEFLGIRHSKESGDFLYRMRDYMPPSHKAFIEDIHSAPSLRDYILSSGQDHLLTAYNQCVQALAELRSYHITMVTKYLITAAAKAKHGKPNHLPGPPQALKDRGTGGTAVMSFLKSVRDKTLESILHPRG
# Protocol: as §1
# Activity of the compounds on hIDO2 was determined according to the previously reported fluorescence protocol for hIDO1 [25] and reported absorbance protocols for hIDO2 [30, 36] with several modifications. Recombinant hIDO2 was purchased from Vinci-Biochem (Vinci-Biochem, Srl, Vinci, Italy), bovine catalase was purchased from Sigma-Aldrich (Sigma-Aldrich, St. Louis, MO, USA). Prior to the measurement of activity for compounds, the enzyme activity was determined and optimal assay enzyme concentration was selected. The amounts of reagents needed to perform the assay were optimized. Briefly, the reagents needed were dissolved in 50 mM potassium phosphate buffer (pH 7.5, 0.01%, v/v Tween 20), the reaction was performed in black 384-well microplates. After the addition of 1 μL of 100 mM sodium ascorbate neutralized with an equimolar amount of 1M NaOH, 1 μL of 100 μM methylene blue, 1 μL of 1 mg/mL bovine catalase, 0.5 μL of DMSO (negative control) or solution of a compound in DMSO, 5 μL of […] hIDO2 and 1.5 μL of 26.7 mM L-Trp were added and the microplate was incubated for 60 min at 37 °C. The reaction was quenched with the addition of 10 μL of 400 mM piperidine solution in MilliQ water and the formation of the examined fluorophore began following incubation at 65 °C for 20 min. The production of NFK-derived fluorophore (λEX = 400 nm, λEM = 500 nm) was measured using a microplate reader (Synergy H4; BioTek Instruments, Inc., Winooski, VT, USA) after 60 min post-incubation at room temperature. In the preliminary testing compounds were tested at 100 μM with activities determined as residual activities—RA, which were calculated to% of inhibition, presented in Table 1 and Table 2. (% of inhibition = 100% − RA). All determinations were carried out in duplicates.
# Hep G2 cell line = assay: Cytotoxicity, MTS cell proliferation assay; format: cell-based; conditions: Hep G2 cells, 10 μM, 24 h
# Protocol: All active compounds were additionally evaluated on a cellular level, starting with the determination of cytotoxicity on Hep G2 cell line using the MTS assay (Figure 3), where inner salt of [3-(4,5-dimethylthiazol-2-yl)-5-(3-carboxymethoxyphenyl)-2-(4-sulfophenyl)-2H-tetrazolium is converted to formazan product, its quantity is directly proportional to the number of living cells. Since the majority of compounds were only partially soluble in a cell medium at concentrations above 100 μM, their effect on cell viability was measured at 50 μM, 10 μM, and 1 μM. […] Taken together, the results obtained from cellular tests reminded us of the necessity to consider the physicochemical properties of compounds even at the early stages of design.
# Cytotoxicity of the compounds was determined on HepG2 cell line using the MTS cell proliferation assay (CellTiter 96 AQueous One Solution Cell Proliferation Assay, Promega, Madison, WI, USA). The cells were seeded in 96-well plates (3 × 10^4 cells/well) and maintained in Dulbecco’s Modified Eagle’s Medium, supplemented with 10% fetal bovine serum (both from Thermo Fisher Scientific, Waltham, MA, USA) and 100 µg/mL gentamicin (Sigma-Aldrich, St. Louis, MO, USA). Following overnight incubation in a humidified chamber at 37 °C and 5% CO2 cells were treated with the compounds of interest at final concentrations of 1 µM, 10 µM, 50 µM, 100 µM, 150 µM, and 200 µM. After 24h incubation under the same conditions, 100 µL of the medium from each well were collected and mixed with 10 µL of MTS solution. Following 3h incubation, the absorbance (λABS = 490 nm) was measured using a microplate reader (Synergy H4; BioTek Instruments, Inc., Winooski, VT, USA). The results are expressed as means of triplicates ± standard deviation of three independent experiments.
# T1 sequence (P48775 whole entry): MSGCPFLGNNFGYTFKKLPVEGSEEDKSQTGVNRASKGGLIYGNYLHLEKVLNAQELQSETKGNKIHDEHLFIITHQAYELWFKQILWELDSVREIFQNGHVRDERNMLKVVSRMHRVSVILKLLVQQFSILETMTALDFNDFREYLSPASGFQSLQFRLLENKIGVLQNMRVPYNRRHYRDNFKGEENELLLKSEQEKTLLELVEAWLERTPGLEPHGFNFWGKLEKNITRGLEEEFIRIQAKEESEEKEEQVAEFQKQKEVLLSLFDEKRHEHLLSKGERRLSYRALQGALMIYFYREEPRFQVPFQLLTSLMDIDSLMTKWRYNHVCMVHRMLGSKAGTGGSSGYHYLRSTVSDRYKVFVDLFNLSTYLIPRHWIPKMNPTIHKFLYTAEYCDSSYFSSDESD
# Sequence of IDO1 (P14902 6-403): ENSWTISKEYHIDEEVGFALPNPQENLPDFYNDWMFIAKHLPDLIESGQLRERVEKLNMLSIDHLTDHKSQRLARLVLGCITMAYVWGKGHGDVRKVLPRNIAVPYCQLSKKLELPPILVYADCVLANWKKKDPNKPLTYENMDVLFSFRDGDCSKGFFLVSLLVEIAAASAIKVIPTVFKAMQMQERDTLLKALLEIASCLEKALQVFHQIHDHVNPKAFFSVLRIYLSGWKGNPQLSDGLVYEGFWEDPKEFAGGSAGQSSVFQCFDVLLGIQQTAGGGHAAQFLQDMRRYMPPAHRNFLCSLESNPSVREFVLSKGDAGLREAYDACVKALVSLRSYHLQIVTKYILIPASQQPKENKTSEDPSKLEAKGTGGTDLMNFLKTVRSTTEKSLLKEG
"inhibition at 100 µM (IDO1; 100 µM compound, n.a. = not active, read-out: IDO1 % of Inhibition @ 100 µM) [%]",inhibition at 100 µM (hTDO) [%],inhibition at 100 µM (hIDO2) [%],melting point [°C],IC50 (IDO1) [µM],hIDO1 inhibition (in words) (IDO1),SMILES,effect on cell viability (Hep G2 cell line)
30 ± 2,25 ± 8,39 ± 5,232 to 235,,,O=C(Cn1cnc2onc(-c3ccc(F)cc3)c2c1=O)Nc1cccc([N+](=O)[O-])c1 [Compound 24],
,24 ± 7,28,200 to 203,98,,O=C(Cn1cnc2onc(-c3ccc(F)cc3)c2c1=O)Nc1ccc([N+](=O)[O-])cc1 [Compound 25],
,,11 ± 7,200 to 202,22,low micromolar range,COC(=O)c1ccc(NC(=O)Cn2cnc3onc(-c4ccccc4)c3c2=O)cc1 [Compound 39],significantly impacted cell viability
,10 ± 2,,226 to 228,96,,O=C(Cn1cnc2onc(-c3ccc(F)c(Br)c3)c2c1=O)Nc1ccc([N+](=O)[O-])cc1 [Compound 49],significantly impacted cell viability
